{
  "source": "paper PMC6570783",
  "about": "“The Novel C5aR Antagonist DF3016A Protects Neurons Against Ischemic Neuroinflammatory Injury” (Neurotoxicity Research, 2019)",
  "key": {"C5aR": {"molecular_target": "C5aR (Homo sapiens, UniProt P21730)", "sequence (P21730 whole entry)": "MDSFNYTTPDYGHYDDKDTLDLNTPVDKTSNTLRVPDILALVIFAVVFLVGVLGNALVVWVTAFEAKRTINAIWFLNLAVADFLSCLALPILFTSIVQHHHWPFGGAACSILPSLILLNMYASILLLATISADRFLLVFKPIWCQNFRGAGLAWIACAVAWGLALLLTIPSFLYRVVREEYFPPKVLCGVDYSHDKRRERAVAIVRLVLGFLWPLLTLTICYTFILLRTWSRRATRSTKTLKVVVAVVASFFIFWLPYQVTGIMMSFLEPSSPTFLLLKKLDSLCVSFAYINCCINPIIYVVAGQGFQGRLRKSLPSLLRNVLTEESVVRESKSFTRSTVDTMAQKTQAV", "conditions": "read-out: IC50, inhibition of C5a-induced human PMN migration; human PMNs, 10 nM C5a", "description": "(§1) Migration of human, rat, and mouse PMNs was evaluated using a 48-well micro-chemotaxis chamber, as previously described (Bertini et al. [2004]). […] Fifty microliters of cell suspension (1.5 × 10^6/ml for human PMNs, 3.0 × 10^6/ml for rat and mouse PMNs) pre-incubated at 37 °C for 15 min in the presence or absence of different concentrations of DF3016A or vehicle was seeded in the upper compartment. The chamber was incubated at 37 °C in air with 5% CO2 for 45 min. At the end of incubation, filters containing migrated cells were removed, fixed, and stained with Diff-Quik, and five oil immersion fields at high magnification (×100; Zeiss microscope) were counted after sample coding."}, "mouse C5aR": {"molecular_target": "mouse C5aR (Mus musculus, UniProt P30993)", "sequence (P30993 whole entry)": "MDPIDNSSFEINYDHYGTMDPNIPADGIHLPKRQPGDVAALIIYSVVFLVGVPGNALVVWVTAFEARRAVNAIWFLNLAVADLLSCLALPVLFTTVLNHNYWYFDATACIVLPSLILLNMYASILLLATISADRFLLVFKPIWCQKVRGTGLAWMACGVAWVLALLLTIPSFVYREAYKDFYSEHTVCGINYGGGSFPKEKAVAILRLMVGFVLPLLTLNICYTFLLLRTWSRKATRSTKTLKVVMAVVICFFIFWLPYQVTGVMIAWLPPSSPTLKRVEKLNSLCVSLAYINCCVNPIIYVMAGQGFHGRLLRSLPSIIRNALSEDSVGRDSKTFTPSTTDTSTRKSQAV", "conditions": "read-out: IC50, mouse C5aR (C5a-induced PMN migration); mouse PMNs, 10 nM mC5a", "description": "(§2) Murine and rat PMNs were isolated from peritoneal cavities injected with 1.5 ml of 3% thioglycolate in saline to male Balb/c mice (20–25 g and 7–9 weeks of age, provided by Charles River, Calco, Italy) or with […] of 3% thioglycolate in saline to SD rat (370–450 g and 3–4 months of age provided by Charles River, UK). Four hours after injection, the animals were sacrificed by decapitation and peritoneal cavities were washed with saline. PMNs were recovered and centrifuged at 600×g for 10 min. The pellet was resuspended in Hank’s Balanced Salt Solution (HBSS); then the cells were counted using Türk’s solution and diluted at 3 × 10^6 cells/ml.\nas §1"}, "rat C5aR": {"molecular_target": "rat C5aR (Rattus norvegicus, UniProt P97520)", "sequence (P97520 whole entry)": "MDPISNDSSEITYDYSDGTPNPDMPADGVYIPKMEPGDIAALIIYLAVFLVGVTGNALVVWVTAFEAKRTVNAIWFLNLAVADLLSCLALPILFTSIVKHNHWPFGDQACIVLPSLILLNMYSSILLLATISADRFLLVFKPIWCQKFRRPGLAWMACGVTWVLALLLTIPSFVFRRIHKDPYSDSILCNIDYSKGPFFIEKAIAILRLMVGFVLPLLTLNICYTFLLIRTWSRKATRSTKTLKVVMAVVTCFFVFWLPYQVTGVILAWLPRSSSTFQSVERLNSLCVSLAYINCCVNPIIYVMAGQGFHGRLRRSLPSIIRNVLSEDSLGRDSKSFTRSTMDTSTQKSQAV", "conditions": "read-out: IC50, rat C5aR (C5a-induced PMN migration); rat PMNs, 10 nM rC5a", "description": "as §2, §1"}, "[1]": {"tested_on": "spontaneous cell migration", "experiment": "Spontaneous PMN migration", "assay_type": "cell-based"}, "[2]": {"tested_on": "PMN migration induced by CXCL8", "experiment": "CXCL8-induced PMN migration", "assay_type": "cell-based", "conditions": "up to 10 μM"}, "[3]": {"tested_on": "PMN migration induced by CXCL1", "experiment": "CXCL1-induced PMN migration", "assay_type": "cell-based", "conditions": "up to 10 μM"}, "[4]": {"tested_on": "PMN migration induced by CCL3", "experiment": "CCL3-induced PMN migration", "assay_type": "cell-based", "conditions": "up to 10 μM"}, "[5]": {"tested_on": "PMN migration induced by fMLP", "experiment": "fMLP-induced PMN migration", "assay_type": "cell-based", "conditions": "up to 10 μM"}, "[6]": {"tested_on": "PMN migration induced by CXCL12", "experiment": "CXCL12-induced PMN migration", "assay_type": "cell-based", "conditions": "up to 10 μM"}, "[7]": {"tested_on": "LPS-induced PGE2 accumulation", "experiment": "LPS-induced PGE2 production in peritoneal murine macrophages", "assay_type": "cell-based, mouse", "conditions": "up to 10 μM, LPS 1 μg/ml, 24 h", "description": "Cells were placed at 1 × 10^6 ml^−1 in 96-well plates and non-adherent cells removed by gentle washing 2 h later. DF3016A was then added to adherent macrophages 20 min before adding lipopolysaccharide (LPS) (1 μg ml^−1). Control cells received vehicle at the appropriate dilution. Total prostaglandin E2 (PGE2) production was determined in the supernatant 24 h after LPS stimulation. PGE2 levels were measured by Enzyme Immunoassay (EIA) Kit (sensitivity 2.5 pg per well)."}, "[8]": {"tested_on": "panel of GPCRs, enzymes, ion channels, transporters, and nuclear receptors (44 targets)", "experiment": "SafetyScreen44 Panel radioligand binding (Eurofins Cerep)", "conditions": "10 μM, triplicate", "description": "DF3016A was tested in the SafetyScreen44 Panel performed at Eurofins Cerep SA (France) by radio ligand binding assays to assess the off-target activities towards a panel of GPCRs, enzymes, ion channels, transporters, and nuclear receptors. All selected targets are recommended by four major pharmaceutical companies (Bowes et al. [2012]). The compound was tested at a single concentration of 10 μM in triplicate.\nDF3016A was dissolved in dimethyl sulfoxide (DMSO) to achieve 10 mM stock solution that was diluted with water/HBSS to a final concentration of 10 μM. Cell membrane homogenates (48 μg protein) were incubated for 60 min at 22 °C with the respective reference compound in the absence or presence of the test compound in a buffer containing 50 mM Tris-HCl (pH 7.4), 2 mM MgCl2, and 1 mM ethylene-diamine-tetra-acetic acid (EDTA). After incubation, the samples were filtered rapidly under vacuum through glass fiber filters (GF/B, Packard Instruments, Meriden, CT, USA) presoaked with 0.3% polyethyleneimine (PEI), and rinsed several times with ice-cold 50 mM Tris-HCl using a 96-sample cell harvester (Unifilter, Packard Instruments). The filters were dried, then counted for radioactivity in a scintillation counter (Topcount, Packard Instruments) using a scintillation cocktail (Microscint-O, Packard Instruments)."}, "[9]": {"experiment": "Rat plasma protein binding (rPPB)", "assay_type": "in vitro ADME"}, "[10]": {"experiment": "Rat brain tissue binding (rBTB)", "assay_type": "in vitro ADME"}, "[11]": {"experiment": "Rat oral pharmacokinetics", "assay_type": "in vivo"}, "[12]": {"tested_on": "cortical neurons exposed to OGD/R", "conditions": "500 nM, 1 h OGD, 3 to 48 h of reperfusion", "description": "DF3016A (500 nM) was added to the cortical neurons which were exposed to O2 and glucose deprivation with glucose-free Neurobasal in Hypoxia Chamber for Cell Culture (BioSpherix) at 5% CO2 atmosphere-[…]. O2 concentration was monitored by using a ProOx sensor controller, and the 0.03% O2 value was considered acceptable. Cells were incubated in this anaerobic chamber for 1 h and then removed from the anaerobic environment. […] Cells of control group were treated identically except that they were not exposed to OGD/R."}, "[13]": {"tested_on": "cortical neurons exposed to OGD/R", "experiment": "AO/ET staining of live and dead neurons after OGD/R", "assay_type": "cell-based, rat", "conditions": "500 nM, OGD/R 3 h"}, "[14]": {"tested_on": "Ca2+ influx in OGD/R neurons", "experiment": "Fluo-4 NW calcium assay in OGD/R neurons", "assay_type": "cell-based, rat", "conditions": "500 nM, P < 0.001 OGD/R-DF vs OGD/R-UT", "description": "Neuronal cells, grown on 96-well plates, were exposed to OGD/R and treated with 500 nM of DF3016A; growth media were removed, and 100 μl of the dye loading solution (F36206 Fluo-4 NW Calcium Assay Kit, Invitrogen) was added carefully to each well. Plates were incubated at 37 °C for 30 min and then at room temperature for an additional 30 min. […] Data were presented as the ratio between Ca^++ influx and neuronal viability."}, "C5aR gene expression": {"tested_on": "C5aR gene expression", "experiment": "C5aR gene expression (qRT-PCR) in OGD/R neurons", "assay_type": "cell-based, rat", "conditions": "500 nM", "description": "(§3) The total RNA, including microRNA (miRNA), from cells in cultures were extracted with Ribospin Kit (GenaAll) followed by Riboclear Plus Kit (GenaAll) to remove residual DNA according to the manufacturer’s protocols.\n(§4) Total mRNA transcription (2μg/20 μl) was performed using High Capacity cDNA Reverse Transcription Kit (Applied Biosystems) and reverse transcription for MicroRNA (10 ng/15 μl) was performed using TaqMan MicroRNA Reverse Transcription Kit (Applied Biosystems).\n(§5) The qPCR 20 μl/reactions for miR-181a (assay ID: hsa-miR-181a) and C5aR (assay ID: Rn02134203_s1) were conducted in triplicate using TaqMan® MicroRNA Assay Kit and TaqMan® Gene Expression Assays protocol (Applied Biosystems), respectively, following the manufacturer’s instructions. Reactions were performed using a Step One Plus Applied Biosystems thermocycler (Life Technologies) with the default protocol. Briefly, for each reaction 40 cycles of amplification with the following profile were performed: 95 °C for 10 min for the first cycle, followed by 40 cycles of 95 °C for 15 s, and 60 °C for 1 min.\n(§6) Relative intensity of PCR-specific amplicons was calculated using the 2^−ΔΔCt method (Livak and Schmittgen [2001]). Beta-actin (assay ID: Rn00667869_m1) and U6 (assay ID: 001973) small nuclear RNA (snRNA) (Han et al. [2015]) were used as internal control to normalize the level of each transcript."}, "C5a protein level": {"tested_on": "C5a protein level", "experiment": "C5a protein release (ELISA) in OGD/R neurons", "assay_type": "cell-based, rat", "conditions": "500 nM", "description": "(§7) Quantitative measurements of cellular proteins (C5a, TNF-α, IL-1β, and IL-6) in cell culture supernatants were determined by ELISA methods using Rat IL-6, Mouse TNFα, Rat IL-1β PicoKine™ ELISA Kits (Boster Biological Technology) and Rat C5a ELISA Kit (Elabscience Biotechnology Inc.) according to the manufacturer’s instructions. All tests were performed in triplicate."}, "TNF-α": {"tested_on": "TNF-α", "experiment": "TNF-α release (ELISA) in OGD/R neurons", "assay_type": "cell-based, rat", "conditions": "500 nM", "description": "as §7"}, "IL-1β": {"tested_on": "IL-1β", "experiment": "IL-1β release (ELISA) in OGD/R neurons", "assay_type": "cell-based, rat", "conditions": "500 nM", "description": "as §7"}, "miR-181a": {"tested_on": "miR-181a", "experiment": "miR-181a expression (qPCR) in OGD/R neurons", "assay_type": "cell-based, rat", "conditions": "500 nM, P < 0.001 OGD/R-DF vs OGD/R-UT", "description": "as §3, §4, §5, §6"}, "[15]": {"conditions": "rat, in vivo, po, 30 mg/kg"}, "[16]": {"tested_on": "primary rat cortical neurons", "experiment": "Neuronal viability (MTS), toxicity of DF3016A"}},
  "data": [
    {"smiles": "CC(c1ccc(Nc2nc(C(F)(F)F)cs2)cc1)c1nnn[nH]1", "note": "(stereo not shown) [DF3016A]", "values": [
      {"measurement": "IC50", "setting": "C5aR", "value": 50, "unit": "nM"},
      {"measurement": "IC50", "setting": "mouse C5aR", "value": 37, "unit": "nM"},
      {"measurement": "IC50", "setting": "rat C5aR", "value": 45, "unit": "nM"},
      {"measurement": "Inhibition of spontaneous cell migration per se", "setting": "[1]", "value": "did not inhibit"},
      {"measurement": "Effect on PMN migration induced by CXCL8", "setting": "[2]", "value": "no effect"},
      {"measurement": "Effect on PMN migration induced by CXCL1", "setting": "[3]", "value": "no effect"},
      {"measurement": "Effect on PMN migration induced by CCL3", "setting": "[4]", "value": "no effect"},
      {"measurement": "Effect on PMN migration induced by fMLP", "setting": "[5]", "value": "no effect"},
      {"measurement": "Effect on PMN migration induced by CXCL12", "setting": "[6]", "value": "no effect"},
      {"measurement": "Effect on LPS-induced PGE2 accumulation", "setting": "[7]", "value": "no effect"},
      {"measurement": "Inhibition of the assayed receptors (off-target activities, 44 targets)", "setting": "[8]", "value": "did not show any inhibition"},
      {"measurement": "rPPB Fu (free plasma fraction)", "setting": "[9]", "value": 0.7, "unit": "%"},
      {"measurement": "rBTB Fu (free brain fraction)", "setting": "[10]", "value": 7.7, "unit": "%"},
      {"measurement": "Oral t1/2", "setting": "[11]", "value": 6.1, "unit": "h"},
      {"measurement": "Rat bioavailability", "setting": "[11]", "value": 69, "unit": "%"},
      {"measurement": "Effect on OGD/R-induced cell death (MTS)", "setting": "[12]", "value": "significantly attenuated OGD/R-induced cell death"},
      {"measurement": "Neuronal death by AO/ET staining", "setting": "[13]", "value": "close to that of control"},
      {"measurement": "Ca2+ influx in OGD/R neurons", "setting": "[14]", "value": "significant reduction"},
      {"measurement": "C5aR gene expression after OGD/R", "setting": "C5aR gene expression", "value": "reverted C5aR gene expression to the control levels"},
      {"measurement": "C5a protein level after OGD/R", "setting": "C5a protein level", "value": "restored C5a protein level to not significant values compared to control"},
      {"measurement": "TNF-α release after OGD/R", "setting": "TNF-α", "value": "restoration of control conditions"},
      {"measurement": "IL-1β release after OGD/R", "setting": "IL-1β", "value": "restoration of control conditions"},
      {"measurement": "miR-181a over-expression after OGD/R", "setting": "miR-181a", "value": "completely attenuated"},
      {"measurement": "Plasma Cmax", "setting": "[15]", "value": "104,683 ± 8867 ng/mL"},
      {"measurement": "Kp (brain to plasma ratio)", "setting": "[15]; 2 h", "value": 0.04},
      {"measurement": "Kpuu (unbound brain to plasma ratio)", "setting": "[15]; 2 h", "value": 0.44},
      {"measurement": "Mortality compared to the control", "setting": "[16]; 10 nM to 5 μM, 24 h, MTS", "value": "no significant mortality"},
      {"measurement": "Viability changes on longer treatment", "setting": "[16]; 500 nM, 24, 48, and 72 h", "value": "without significant viability changes"}
    ]}
  ]
}
